In patent US10577363B2, “Substituted piperidine compounds” (EPIZYME, INC., priority 2014, dated 2020):
pIC50: −log10 of the molar value.

Assays:
SMYD3 [1] = molecular target: T1, SMYD3 (Homo sapiens (Human), UniProt Q9H7B4); assay: SMYD3 biochemical assay (SPA, 3H-SAM methylation of MEKK2 protein substrate); conditions: read-out: SMYD3 Biochem IC50*
In short: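 Native full-length human SMYD3 (E. coli-expressed, tags removed) was preincubated with compound for 30 min at room temperature in 25 mM Tris-Cl pH 8.0, 1 mM TCEP, 0.005% BSG, 0.005% Tween 20. Reaction was started with 3H-SAM plus GST-MEKK2, quenched with 100 uM unlabeled SAM, and read by SPA scintillation counting.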

SMYD3 [2] = molecular target: T1, SMYD3; assay: SMYD3 cell assay (Trimethyl-MEKK2 In-Cell Western in 293T/17 cells); assay type: cell-based; conditions: read-out: SMYD3 Cell IC50*
In short: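 In-Cell Western ratio of trimethyl-Lys260 MEKK2 to anti-flag signal; percent inhibition from DMSO and maximum-inhibition controls, IC50 by non-linear regression, triplicates.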

T1 sequence (Q9H7B4 whole entry): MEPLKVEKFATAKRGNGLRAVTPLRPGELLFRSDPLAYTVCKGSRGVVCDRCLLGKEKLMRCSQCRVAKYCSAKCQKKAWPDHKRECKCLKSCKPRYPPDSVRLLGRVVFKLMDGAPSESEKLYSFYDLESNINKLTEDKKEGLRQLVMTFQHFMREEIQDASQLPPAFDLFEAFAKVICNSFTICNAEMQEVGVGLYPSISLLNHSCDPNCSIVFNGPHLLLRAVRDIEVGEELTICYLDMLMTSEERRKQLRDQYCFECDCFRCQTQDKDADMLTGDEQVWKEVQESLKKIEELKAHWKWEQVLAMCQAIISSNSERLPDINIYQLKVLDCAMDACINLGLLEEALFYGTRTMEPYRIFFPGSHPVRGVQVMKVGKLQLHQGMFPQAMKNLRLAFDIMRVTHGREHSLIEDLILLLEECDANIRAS

For `O=C(N[C@H]1C[C@H]2CC[C@@H](C1)N2S(=O)(=O)C[C@@H]1CCCN1)c1cc(C2CC2)on1` [compound 930, 5-cyclopropyl-N-((1R,3S,5S)-8-((((S)-pyrrolidin-2-yl)methyl)sulfonyl)-8-azabicyclo[3.2.1]octan-3-yl)isoxazole-3-carboxamide], the pIC50 (SMYD3 [1]) was 7.43 and the pIC50 (SMYD3 [2]) was 6.45.

For `C[C@H](N)c1ccc(S(=O)(=O)N2[C@@H]3CC[C@H]2C[C@@H](NC(=O)c2cc(C4CC4)on2)C3)cc1` [compound 931, N-((1R,3S,5S)-8-((4-((S)-1-aminoethyl)phenyl)sulfonyl)-8-azabicyclo[3.2.1]octan-3-yl)-5-cyclopropylisoxazole-3-carboxamide], the pIC50 (SMYD3 [1]) was 7.43 and the pIC50 (SMYD3 [2]) was 6.28.

Work on `C[C@H]1C[C@@H](NC(=O)c2cc(C3CC3)on2)CCN1S(=O)(=O)N1C[C@H]2CC[C@@H](C1)[C@@H]2N` [compound 932, N-((2S,4S)-1-(((1R,5S,8R)-8-amino-3-azabicyclo[3.2.1]octan-3-yl)sulfonyl)-2-methylpiperidin-4-yl)-5-cyclopropylisoxazole-3-carboxamide] yielded a pIC50 (SMYD3 [1]) of 7.41 and a pIC50 (SMYD3 [2]) of 6.45.

`CN1CC2CC(C1)N2S(=O)(=O)N1[C@@H]2CC[C@H]1C[C@@H](NC(=O)c1cc(C3CC3)on1)C2` [compound 933, 5-cyclopropyl-N-((1R,3r,5S)-8-((3-methyl-3,6-diazabicyclo[3.1.1]heptan-6-yl)sulfonyl)-8-azabicyclo[3.2.1]octan-3-yl)isoxazole-3-carboxamide] gave a pIC50 (SMYD3 [1]) of 7.37 and a pIC50 (SMYD3 [2]) of 7.04.

With `C[C@@H](N)c1ccc(S(=O)(=O)N2[C@@H]3CC[C@H]2C[C@@H](NC(=O)c2cc(C4CC4)on2)C3)cc1` [compound 934, N-((1R,3R,5S)-8-((4-((R)-1-aminoethyl)phenyl)sulfonyl)-8-azabicyclo[3.2.1]octan-3-yl)-5-cyclopropylisoxazole-3-carboxamide] the pIC50 (SMYD3 [1]) was 7.37 and the pIC50 (SMYD3 [2]) was 6.31.

Work on `C[C@H]1C[C@@H](NC(=O)c2cc(C3CC3)on2)CCN1S(=O)(=O)N1CCC(N(C)CCN2CCOCC2)CC1` [compound 935, 5-cyclopropyl-N-((2S,4S)-2-methyl-1-((4-(methyl(2-morpholinoethyl)amino)piperidin-1-yl)sulfonyl)piperidin-4-yl)isoxazole-3-carboxamide] yielded a pIC50 (SMYD3 [1]) of 7.37 and a pIC50 (SMYD3 [2]) of 6.38.

`CN(CCCN1CCOCC1)C1CCN(S(=O)(=O)N2[C@@H]3CC[C@H]2C[C@@H](NC(=O)c2cc(C4CC4)on2)C3)CC1` [compound 936, 5-cyclopropyl-N-((1R,3r,5S)-8-((4-(methyl(3-morpholinopropyl)amino)piperidin-1-yl)sulfonyl)-8-azabicyclo[3.2.1]octan-3-yl)isoxazole-3-carboxamide] showed a pIC50 (SMYD3 [1]) of 7.36 and a pIC50 (SMYD3 [2]) of 6.21.

`CC[C@@H]1CNCCN1S(=O)(=O)N1CC[C@H](NC(=O)c2cc(C3CC3)on2)C[C@@H]1C` [compound 937, 5-cyclopropyl-N-((2S,4S)-1-(((R)-2-ethylpiperazin-1-yl)sulfonyl)-2-methylpiperidin-4-yl)isoxazole-3-carboxamide] was tested, and the pIC50 (SMYD3 [1]) was 7.36 and the pIC50 (SMYD3 [2]) was 6.31.

Compound `N#Cc1ccc(CNC2CCN(S(=O)(=O)N3[C@@H]4CC[C@H]3C[C@@H](NC(=O)c3cc(C5CC5)on3)C4)CC2)cc1` [compound 938, N-((1R,3r,5S)-8-((4-((4-cyanobenzyl)amino)piperidin-1-yl)sulfonyl)-8-azabicyclo[3.2.1]octan-3-yl)-5-cyclopropylisoxazole-3-carboxamide] has a pIC50 (SMYD3 [1]) of 7.36 and a pIC50 (SMYD3 [2]) of 6.29.

For `O=C(N[C@H]1C[C@H]2CC[C@@H](C1)N2S(=O)(=O)N1CCNCC1c1ccccc1)c1cc(C2CC2)on1` (stereo partly drawn) [compound 939, 5-cyclopropyl-N-((1R,3r,5S)-8-((2-phenylpiperazin-1-yl)sulfonyl)-8-azabicyclo[3.2.1]octan-3-yl)isoxazole-3-carboxamide], the pIC50 (SMYD3 [1]) was 7.35 and the pIC50 (SMYD3 [2]) was 6.44.

`CC1CN(S(=O)(=O)N2[C@@H]3CC[C@H]2C[C@@H](NC(=O)c2cc(C4CC4)on2)C3)C(C)CN1C` (stereo partly drawn) [compound 941, 5-cyclopropyl-N-((1R,3r,5S)-8-((2,4,5-trimethylpiperazin-1-yl)sulfonyl)-8-azabicyclo[3.2.1]octan-3-yl)isoxazole-3-carboxamide] showed a pIC50 (SMYD3 [1]) of 7.32 and a pIC50 (SMYD3 [2]) of 6.47.

With `O=C(N[C@H]1C[C@H]2CC[C@@H](C1)N2S(=O)(=O)NC1CCN[C@H](Cc2ccccc2)C1)c1cc(C2CC2)on1` (stereo partly drawn) [compound 942, N-((1R,3R,5S)-8-(N-((2R)-2-benzylpiperidin-4-yl)sulfamoyl)-8-azabicyclo[3.2.1]octan-3-yl)-5-cyclopropylisoxazole-3-carboxamide] the pIC50 (SMYD3 [1]) was 7.32 and the pIC50 (SMYD3 [2]) was 6.18.

`C[C@H](NC1CCN(S(=O)(=O)N2[C@@H]3CC[C@H]2C[C@@H](NC(=O)c2cc(C4CC4)on2)C3)CC1)c1ccc(F)cc1` [compound 943, 5-cyclopropyl-N-((1R,3S,5S)-8-((4-(((S)-1-(4-fluorophenyl)ethyl)amino)piperidin-1-yl)sulfonyl)-8-azabicyclo[3.2.1]octan-3-yl)isoxazole-3-carboxamide] showed a pIC50 (SMYD3 [1]) of 7.32 and a pIC50 (SMYD3 [2]) of 6.22.

Work on `C[C@@H](NC1CCN(S(=O)(=O)N2[C@@H]3CC[C@H]2C[C@@H](NC(=O)c2cc(C4CC4)on2)C3)CC1)c1ccc(F)cc1` [compound 944, 5-cyclopropyl-N-((1R,3R,5S)-8-((4-(((R)-1-(4-fluorophenyl)ethyl)amino)piperidin-1-yl)sulfonyl)-8-azabicyclo[3.2.1]octan-3-yl)isoxazole-3-carboxamide] yielded a pIC50 (SMYD3 [1]) of 7.31 and a pIC50 (SMYD3 [2]) of 6.17.

For `O=C(N[C@H]1C[C@H]2CC[C@@H](C1)N2S(=O)(=O)N(Cc1ccccc1)C1CCNCC1)c1cc(C2CC2)on1` [compound 945, N-((1R,3r,5S)-8-(N-benzyl-N-(piperidin-4-yl)sulfamoyl)-8-azabicyclo[3.2.1]octan-3-yl)-5-cyclopropylisoxazole-3-carboxamide], the pIC50 (SMYD3 [1]) was 7.30 and the pIC50 (SMYD3 [2]) was 6.65.

Compound `O=C(N[C@H]1C[C@H]2CC[C@@H](C1)N2S(=O)(=O)c1ccc(CNCCO)cc1)c1cc(C2CC2)on1` [compound 946, 5-cyclopropyl-N-((1R,3r,5S)-8-((4-(((2-hydroxyethyl)amino)methyl)phenyl)sulfonyl)-8-azabicyclo[3.2.1]octan-3-yl)isoxazole-3-carboxamide] has a pIC50 (SMYD3 [1]) of 7.29 and a pIC50 (SMYD3 [2]) of 6.48.

For `O=C(N[C@H]1C[C@H]2CC[C@@H](C1)N2S(=O)(=O)N1CCC(NCCN2CCOCC2)CC1)c1cc(C2CC2)on1` [compound 947, 5-cyclopropyl-N-((1R,3r,5S)-8-((4-((2-morpholinoethyl)amino)piperidin-1-yl)sulfonyl)-8-azabicyclo[3.2.1]octan-3-yl)isoxazole-3-carboxamide], the pIC50 (SMYD3 [1]) was 7.28 and the pIC50 (SMYD3 [2]) was 6.47.

With `O=C(N[C@H]1C[C@H]2CC[C@@H](C1)N2S(=O)(=O)NC1CCN(Cc2ccccc2)CC1)c1cc(C2CC2)on1` [compound 948, N-((1R,3r,5S)-8-(N-(1-benzylpiperidin-4-yl)sulfamoyl)-8-azabicyclo[3.2.1]octan-3-yl)-5-cyclopropylisoxazole-3-carboxamide] the pIC50 (SMYD3 [1]) was 7.28 and the pIC50 (SMYD3 [2]) was 6.39.

Compound `O=C(N[C@H]1CCN(S(=O)(=O)NC2CCNCC2)[C@@H](Cc2ccccc2)C1)c1cc(C2CC2)on1` [compound 949, N-((2S,4S)-2-benzyl-1-(N-(piperidin-4-yl)sulfamoyl)piperidin-4-yl)-5-cyclopropylisoxazole-3-carboxamide] has a pIC50 (SMYD3 [1]) of 7.28 and a pIC50 (SMYD3 [2]) of 5.82.
